The source of these data is PMC4777897 (Progress in neuro-psychopharmacology & biological psychiatry, 2015).

Each structure is given as a SMILES string.

For data set [1], the system named is participants who met criteria for cocaine use disorder. The data set is described as follows: Cocaine-induced subjective effects. It counts as in vivo, human. The conditions noted are these: VAS.
The test system is the same in data set [2]. The data set is described as follows: Reinforcing effects: choice session, cocaine vs money self-administration. Type of data set: in vivo, human. As to conditions: Day 13; nepicastat 0 or 160 mg; cocaine 0 or 20 mg IV.
Data set [3] shares this test system. The data set is described as follows: Adverse events, inpatient study of oral nepicastat with IV cocaine. Type of data set: in vivo, human.
Data set [4] concerns rats. As to conditions: ref Schroeder et al., 2013; cited from earlier work.
Data set [5] in a line: Plasma pharmacokinetics of cocaine after 10 mg IV infusion. The conditions noted are these: cocaine 10 mg IV.
Data set [6] concerns DA and NE release in mPFC and NAc. The conditions noted are these: rats, microdialysis; ref Devoto et al., 2014; cited from earlier work.
Data set [7] concerns participants who met criteria for cocaine use disorder. The data set can be described thus: Cocaine-induced cardiovascular effects. Type of data set: in vivo, human. As to conditions: nepicastat 0, 80, 160 mg; cocaine 0, 10, 20, 40 mg IV; n = 13.
Setting [8] is: Treatment–Cocaine period, nepicastat group n = 14.

For the compound `Cl.NCc1c[nH]c(=S)n1[C@H]1CCc2c(F)cc(F)cc2C1.O` [nepicastat, (S)-5-aminomethyl-1-(5,7-difluoro-1,2,3,4-tetrahydronaphth-2-yl)-1,3-dihydroimidazole-2-thione hydrochloride monohydrate], the “Effect on negative subjective effects” value in data set [1] (nepicastat 80 and 160 mg oral with IV cocaine) is listed as “did not increase”. Also, the “Reduction of the positive subjective effects produced by cocaine” value in data set [1] (nepicastat 80 and 160 mg oral, n = 13) was ~ 25%. Further, in data set [2], the “Main effect on choices for cocaine vs money (ANOVA)” value is given as “did not reveal a main effect”. Moreover, in data set [3] (setting [8]), the “Incidence of Abnormal dreams” value is reported as 0 (0) number (%) of subjects, the “Incidence of Arthralgia” value was 2 (14) number (%) of subjects, the “Incidence of Back pain” value is listed as 0 (0) number (%) of subjects and the “Incidence of Depressed mood” value is 1 (7) number (%) of subjects. In data set [3] (setting [8]), the “Incidence of Dizziness” value is given as 0 (0) number (%) of subjects, the “Incidence of Dyspepsia” value was 2 (14) number (%) of subjects, the “Incidence of Gastroesophageal reflux disease” value is reported as 3 (21) number (%) of subjects and the “Incidence of Headache” value was 2 (14) number (%) of subjects. Further, in data set [3] (setting [8]), the “Incidence of Insomnia” value was 4 (29) number (%) of subjects, the “Incidence of Myalgia” value is given as 0 (0) number (%) of subjects, the “Incidence of Nausea” value is 1 (7) number (%) of subjects and the “Incidence of Neck pain” value was 2 (14) number (%) of subjects. In data set [3] (setting [8]), the “Incidence of Vessel puncture site hematoma” value is given as 0 (0) number (%) of subjects and the “Incidence of Vessel puncture site pain” value is given as 4 (29) number (%) of subjects. Besides, the “Safety and tolerability (number, type, severity and duration of AEs vs placebo)” value in data set [3] (oral nepicastat 80 and 160 mg during IV cocaine exposure) was “safe and well-tolerated”. Moreover, in data set [4], the Breakpoint for cocaine entry is “significantly lowered”. Besides, in data set [5] (Day 3 vs Day 11, data not shown), the “Effect on PK parameters of benzoylecgonine or ecgonine methyl ester” value is “None of the PK parameters for benzoylecgonine or ecgonine methyl ester showed statistically significant changes”. Further, the “Effect on kinetics, metabolism or clearance of cocaine or its metabolites” value in data set [5] (oral nepicastat 160 mg) is listed as “did not change”. Also, the “DA release in the mPFC and NAc” value in data set [6] is “increasing DA release in the mPFC but not in the NAc”. Also, in data set [7], the “Main effect on peak heart rate (ANOVA)” value was “one was detected” and the “Main effect on peak systolic or diastolic blood pressure (ANOVA)” value is on record as “did not reveal a main effect”.
